In patent US8252793B2, “Bradykinin receptor agonists and uses thereof to treat ocular hypertension and glaucoma” (Alcon Research, Ltd., priority 2010, dated 2012):

Assays:
[1] = biological target: T1, recombinant human bradykinin B2 receptor (Homo sapiens, UniProt P30411); assay: [3H]-BK competition radioligand binding to human cloned B2 receptor (CHO cell membranes); conditions: 0.2 nM [3H]-bradykinin, CHO membranes, 60 min 23° C.; mean ± SEM or single value; Ki from IC50 by Cheng-Prusoff; read-out: [3H]-BK Binding to Human Cloned B2 Receptor (Ki)
T1 construct: expressed in transfected cells; host or cells: Chinese hamster ovary (CHO) cells, membrane homogenates
T1 sequence (P30411 1-391): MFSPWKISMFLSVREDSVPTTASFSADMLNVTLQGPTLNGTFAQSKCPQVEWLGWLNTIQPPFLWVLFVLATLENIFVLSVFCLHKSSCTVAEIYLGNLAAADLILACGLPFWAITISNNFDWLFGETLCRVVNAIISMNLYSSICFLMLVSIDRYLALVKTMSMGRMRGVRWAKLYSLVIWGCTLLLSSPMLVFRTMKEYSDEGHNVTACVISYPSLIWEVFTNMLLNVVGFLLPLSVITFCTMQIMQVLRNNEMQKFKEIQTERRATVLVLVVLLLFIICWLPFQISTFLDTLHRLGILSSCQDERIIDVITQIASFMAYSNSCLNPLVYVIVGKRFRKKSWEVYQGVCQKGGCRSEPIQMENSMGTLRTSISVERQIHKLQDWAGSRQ
Experimental: Chinese hamster ovary (CHO) cell membrane homogenates (2.5 μg protein) expressing the recombinant human bradykinin B2 receptor were incubated for 60 min at 23° C. with 0.2 nM [^3H]-bradykinin (95.5 Ci/mmole, PerkinElmer) in the absence or presence of the test compound in a buffer containing 50 mM Tris/HCl (pH 7.4), 0.2 g/L 1-10-phenanthroline and 0.1% BSA. All reagent and test compound additions to the assay plates were made using Biomek 3000 robotic workstations (Beckman Instruments, Fullerton, Calif.). Nonspecific binding was determined in the presence of 1 μM unlabeled bradykinin. Following the incubation, the assay was terminated by rapid filtration under vacuum through glass fiber filters (GF/C, PerkinElmer) presoaked with 0.3% polyethyleneimine and rinsed several times with an ice-cold 50 mM Tris-HCl buffer using a 96-sample cell harvester (Tomtec). The filters were air-dried and the radioactivity counted in a beta-scintillation counter (Topcount, PerkinElmer) using a scintillation cocktail (Microscint 20, PerkinElmer) (Sharif and Whiting, Neurochem. Int. 18: 89-96, 1991). Competitive binding inhibition curves were generated using a 7-point concentration—response of test compound in duplicate. Bradykinin peptide was also tested as an internal control in the assay. The data were analyzed using nonlinear, iterative curve-fitting to obtain the potency and intrinsic activities of the test agents as previously described (Sharif et al. J. Pharmacol. Exp. Ther. 286: 1094-1102, 1998; Sharif et al. Invest Ophthalmol. Vis. Sci. 39:2562-2571, 1998; Kelly et al. J. Pharmacol. Exp. Ther. 304: 238-245, 2003). Determined IC50 values were converted to Ki values using the standard Cheng-Prusoff equation.

[2] = biological target: T2, BK receptors in human ciliary muscle cells (h-CM) (Homo sapiens, UniProt P30411); assay: Functional assay measuring [Ca2+]i mobilization (FLIPR) in h-CM cells; type: cell-based; conditions: class symbols (in μM), read-out: CaM (EC50)
T2 construct: h-CM cells expressing BK receptors were seeded; endogenous in cells; host or cells: human ciliary muscle (h-CM) cells
T2 sequence (P30411 1-391): T1 sequence (P30411 1-391)
Experimental: On the day of the experiment, media was removed, cells were rinsed and 50 μL of serum-free media added. One vial of FLIPR Calcium Assay Kit dye was reconstituted in 50 mL of a FLIPR buffer consisting of Hank's Balanced Salt Solution (HBSS), 20 mM HEPES, and 2.5 mM probenecid, pH 7.4. Cells were loaded with the calcium-sensitive dye by addition of an equal volume (50 μL) to each well of the 96-well plate and incubated with dye for 1 h at 23° C. […] After this time, the test compound plate and cell plate were placed in a Fluorescence Imaging Plate Reader (FLIPR-Tetra®) instrument (Molecular Devices/MDSPharma, Sunnyvale, Calif.). At the beginning of an experimental run, a signal test was performed to check the basal fluorescence signal from the dye-loaded cells and the uniformity of the signal across the plate. […] An aliquot (25 μL) of the test compound was added to the existing 100 μL dye-loaded cells at a dispensing speed of 50 μL/sec. Intracellular calcium mobilization was measured by monitoring real-time changes in cellular fluorescence upon test compound addition. Fluorescence data were collected in real-time at 1.0 sec intervals for the first 60 seconds and at 6.0 second intervals for an additional 120 seconds. Baseline fluorescence readings were normalized across the plate and background-corrected from negative control wells. […] EC50 values were determined by 4-parameter nonlinear curve fitting of the concentration-response curve. Calibration of the instrument was performed using manufacturer's standard procedures.

[3] = test system: primary human ciliary muscle cells (h-CM); assay: Total prostaglandin (PG) release from primary h-CM cells (EIA); type: cell-based; conditions: 1 hour at 37° C., class symbols (in μM)
Experimental: BK agonist compounds of Formula 1 were evaluated for the ability to induce prostaglandin (PG) release from primary human ciliary muscle cells (h-CM). Briefly, h-CM cells were grown to confluence in FNC-coated 24-well culture plates and serum-starved (0.8% FBS) for 24 hours prior to the experiment. Cells were stimulated with a 9-pt concentration-response (0.1 nM-10 μM) of bradykinin or BK agonist for 1 hour at 37° C. with subsequent sample recovery and processing for total PG measurement. Total PG measurement was determined using a total Prostaglandin Screening EIA kit (cat#514012) purchased from Cayman Chemical (Ann Arbor, Mich.). The assay was conducted according to the package insert from the manufacturer.

Molecule	Ki [1] [nM]	EC50 [2] [µM]	EC50 ([3]; Homo sapiens, 1 h) [µM]	EC50 [3] [µM]
COc1nc2c(OCc3c(Cl)ccc(N(C)C(=O)CNC(=O)CCc4ccc(NC(=O)CN)nc4)c3Cl)cccc2n1Cc1ccccn1 [Compound 74, 3-(6-(2-aminoacetamido)pyridin-3-yl)-N-(2-((2,4-dichloro-3-(((2-methoxy-1-(pyridin-2-ylmethyl)-1H-benzo[d]imidazol-4-yl)oxy)methyl)phenyl)(methyl)amino)-2-oxoethyl)propanamide]	384	< 0.1	0.1 to 1	
CNC(=O)c1ccc(CCC(=O)NCC(=O)N(C)c2ccc(Cl)c(COc3cccc4c3nc(OC)n4Cc3nccn3C)c2Cl)cc1 [Compound 82]	205	< 0.1	> 1	
CNCc1ccc(CCC(=O)NCC(=O)N(C)c2ccc(Cl)c(COc3cccc4c3nc(OC)n4Cc3ccccn3)c2Cl)cc1 [Compound 83]	329	< 0.1	> 1	
CNC(=O)c1ccc(CCC(=O)NCC(=O)N(C)c2ccc(Cl)c(COc3cccc4c3nc(OC)n4Cc3ccccn3)c2Cl)nc1 [Compound 43, 6-(3-((2-((2,4-dichloro-3-(((2-methoxy-1-(pyridin-2-ylmethyl)-1H-benzo[d]imidazol-4-yl)oxy)methyl)phenyl)(methyl)amino)-2-oxoethyl)amino)-3-oxopropyl)-N-methylnicotinamide]		< 0.1	< 0.1	
CNC(=O)c1ccc(CCC(=O)NCC(=O)N(C)c2ccc(Cl)c(COc3cccc4c3nc(OC)n4Cc3cn(C)cn3)c2Cl)cn1 [Compound 86]		< 0.1	< 0.1	
4-(3-((2-((2,4-dichloro-3-(((2-methyl-4-(pyridin-2-ylmethoxy)quinolin-8-yl)oxy)methyl)phenyl)(methyl)amino)-2-oxoethyl)amino)-3-oxopropyl)-N-methylbenzamide [Compound 31]		< 0.1		0.1 to 1
CNC(=O)c1ccc(CCC(=O)NCC(=O)N(C)c2ccc(Cl)c(COc3cccc4c(OCc5cn(C)cn5)cc(C)nc34)c2Cl)cn1 [Compound 48, 5-(3-((2-((2,4-dichloro-3-(((2-methyl-4-((1-methyl-1H-imidazol-4-yl)methoxy)quinolin-8-yl)oxy)methyl)phenyl)(methyl)amino)-2-oxoethyl)amino)-3-oxopropyl)-N-methylpicolinamide]		< 0.1	0.1 to 1	
COc1nc2c(OCc3c(Cl)ccc(N(C)C(=O)CNC(=O)CCc4ccc(C(=O)NCCO)nc4)c3Cl)cccc2n1Cc1cn(C)cn1 [Compound 85]		< 0.1	< 0.1	
CNC(=O)c1ccc(CCC(=O)NCC(=O)N(C)c2ccc(Cl)c(COc3cccc4c(OCc5cn(C)cn5)cc(C)nc34)c2Cl)cn1 [Compound 87]		0.1 to 1		< 0.1

Results, then the molecule that gave them:

Ki [1] [nM]	EC50 [2] [µM]	EC50 ([3]; Homo sapiens, 1 h) [µM]	EC50 [3] [µM]	Molecule
74 ± 6	< 0.1	0.1 to 1		COc1nc2c(OCc3c(Cl)ccc(N(C)C(=O)CNC(=O)CCC4CN=C(NC(C)=O)NC4)c3Cl)cccc2n1Cc1ccccn1 (centres unmarked) [Compound 25, 3-(2-acetamido-1,4,5,6-tetrahydropyrimidin-5-yl)-N-(2-((2,4-dichloro-3-(((2-methoxy-1-(pyridin-2-ylmethyl)-1H-benzo[d]imidazol-4-yl)oxy)methyl)phenyl)(methyl)amino)-2-oxoethyl)propanamide]
261 ± 195	< 0.1	> 1		CNC(=O)N1CCN(CCCC(=O)NCC(=O)N(C)c2ccc(Cl)c(COc3cccc4c3nc(OC)n4Cc3ccccn3)c2Cl)CC1 [Compound 12]
102	< 0.1	< 0.1		CNC(=O)C1CN(CC(=O)NCC(=O)N(C)c2ccc(Cl)c(COc3cccc4c3nc(OC)n4Cc3ccccn3)c2Cl)CCO1 (centres unmarked) [Compound 44, 4-(2-((2-((2,4-dichloro-3-(((2-methoxy-1-(pyridin-2-ylmethyl)-1H-benzo[d]imidazol-4-yl)oxy)methyl)phenyl)(methyl)amino)-2-oxoethyl)amino)-2-oxoethyl)-N-methylmorpholine-2-carboxamide]
	0.1 to 1	< 0.1		CNC(=O)c1ccc(CCC(=O)NCC(=O)N(C)c2ccc(Cl)c(COc3cccc4c(OCc5ccccc5F)cc(C)nc34)c2Cl)cn1 [Compound 47, 5-(3-((2-((2,4-dichloro-3-(((4-((2-fluorobenzyl)oxy)-2-methylquinolin-8-yl)oxy)methyl)phenyl)(methyl)amino)-2-oxoethyl)amino)-3-oxopropyl)-N-methylpicolinamide]
	< 0.1	> 1		COc1nc2c(OCc3c(Cl)ccc(N(C)C(=O)CNC(=O)CCc4ccc(N)nc4)c3Cl)cccc2n1Cc1ccccn1 [Compound 67]
	< 0.1	0.1 to 1		COc1nc2c(OCc3c(Cl)ccc(N(C)C(=O)CNC(=O)CN4CCC(NC(C)=O)C4)c3Cl)cccc2n1Cc1ccccn1 (centres unmarked) [Compound 66]
	< 0.1	< 0.1		CNC(=O)c1ccc(CCC(=O)NCC(=O)N(C)c2ccc(Cl)c(COc3cccc4c3nc(OC)n4Cc3cn(C)cn3)c2Cl)cc1 [Compound 78, 4-(3-((2-((2,4-dichloro-3-(((2-methoxy-1-((1-methyl-1H-imidazol-4-yl)methyl)-1H-benzo[d]imidazol-4-yl)oxy)methyl)phenyl)(methyl)amino)-2-oxoethyl)amino)-3-oxopropyl)-N-methylbenzamide]
	< 0.1	> 1		COc1nc2c(OCc3c(Cl)ccc(N(C)C(=O)CNC(=O)CCCN4CCNC(=O)C4)c3Cl)cccc2n1Cc1ccccn1 [Compound 72]
	0.1 to 1	> 1		CNC(=O)C1CCN(CC(=O)NCC(=O)N(C)c2ccc(Cl)c(COc3cccc4c3nc(OC)n4Cc3ccccn3)c2Cl)CC1 [Compound 13, 1-(2-((2-((2,4-dichloro-3-(((2-methoxy-1-(pyridin-2-ylmethyl)-1H-benzo[d]imidazol-4-yl)oxy)methyl)phenyl)(methyl)amino)-2-oxoethyl)amino)-2-oxoethyl)-N-methylpiperidine-4-carboxamide]
	0.1 to 1	< 0.1		CCOC(=O)COc1cc(C)nc2c(OCc3c(Cl)ccc(N(C)C(=O)CNC(=O)CCc4ccc(C(=O)NC)nc4)c3Cl)cccc12 [Compound 46, ethyl 2-((8-((2,6-dichloro-3-(N-methyl-2-(3-(6-(methylcarbamoyl)pyridin-3-yl)propanamido)acetamido)benzyl)oxy)-2-methylquinolin-4-yl)oxy)acetate]
